How the values were obtained:
Conditions in all cases: 48 h
[1] = test system: CU-ACC1; experiment: area under concentration-response curve (viability) (AUC (a.u.)); higher = less active
Outline: (§1)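 Three adrenocortical carcinoma cell lines were plated in 1,536-well plates at 500–1,000 cells/well in 5 µL medium, and 23 nL of each library compound was added at 11 concentrations. After 48 h, CellTiter-Glo was applied for 15 minutes at room temperature before luminescence was read. Each plate's signals were normalised to vehicle and empty-well controls. AC50 and area under the curve were taken from fitted concentration-response curves, with only inhibitory or non-responding curve classes retained.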

[2] = test system: CU-ACC1; experiment: AC50 viability; higher = less potent
Outline: as §1

[3] = test system: NCI-H295R; experiment: area under concentration-response curve (viability) (AUC (a.u.)); higher = less active
Outline: as §1

[4] = test system: CU-ACC2; experiment: as above
Outline: as §1

[5] = test system: NCI-H295R; experiment: AC50 viability; higher = less potent
Outline: as §1

SMILES | area under concentration-response curve [1] | AC50 viability [2] [µM] | area under concentration-response curve [3] | area under concentration-response curve [4] | AC50 viability [5] [µM]
CC(=O)N1CCN(CCOC2=CC=C(C=C2)C3CCN(CC3)/C4=N/[N]5C(=NN=C5C(F)(F)F)CC4)CC1 | 430 | 11.8 |  |  | 
CCN(CC)CCCCNc1nc2cc(Cl)c(Cl)cc2nc1-c1ccc(-c2cccs2)s1 | 451 | 23.5 |  |  | 
CCCCCNC(=N)N/N=C/c1c[nH]c2ccc(OC)cc12 | 416 | 14.8 |  |  | 
CN(C)Cc1cccc(N/C(=C2\C(=O)Nc3cc(C(N)=O)ccc32)c2ccccc2)c1 | 420 | 23.5 |  |  | 
C[S+](=O)([O-])c1ccc(-c2cnc(NCc3ccco3)n3cnnc23)cc1 | 357 | 2.09 |  |  | 
COC[C@H]1OC(=O)C2=COC3=C2[C@@]1(C)\C4=C(\[C@@H]5CC[C@H](O)[C@@]5(C)C[C@H]4OC(C)=O)C3=O | 311 | 4.17 |  |  | 
COc1cc(N2CCC(N3CCN(C)CC3)CC2)ccc1Nc1ncnc(Nc2ccccc2[S+](=O)([O-])C(C)C)n1 | 258 | 0.00468 |  |  | 
Nc1ncnc(Nc2ccc(OCc3ccccc3)c(Cl)c2)c1/C=N/OCCN1CCOCC1 | 324 | 20.9 |  |  | 
C[C@@H](Nc1cc(F)cc(F)c1)c1cc(C(=O)N(C)C)cc2c(=O)cc(N3CCOCC3)oc12 | 466 | 13.2 |  |  | 
CN(C)CCN1C(=O)c2cccc3cc(N)cc(c23)C1=O | 452 | 26.3 |  |  | 
C[C@H](NC1=C2N=C[NH]C2=NC=N1)C/3=C/C4=C(C(=CC=C4)Cl)C(=O)N3C5=CC=CC=C5 | 447 | 20.9 |  |  | 
CC(C)[N]1C=C(C)C2=C1C=C(C=C2C(=O)NC\C3=C(C)\C=C(C)/NC3=O)C4=CC=C(N=C4)N5CCN(C)CC5 | 491 | 23.5 |  |  | 
N#CC1(c2cccc(C(=O)Nc3cc(Oc4ccc5nc(NC(=O)C6CC6)sc5n4)ccc3F)c2Cl)CC1 | 390 | 4.17 |  |  | 
CN(C)CCCN\C1=C\2C(=O)N(C)C(=O)\N=C2N(C)C3=C1C=CC=C3 | 501 | 18.6 |  |  | 
ClC1=C[NH]N=C1C\2NC(=N\C3=C2C(=O)CCC3)/NC4=NC5=CC=CC=C5O4 (stereo not drawn) | 426 | 41.7 |  |  | 
OCCOc1ccc(/C(=C(/CCCl)c2ccccc2)c2ccccc2)cc1 | 470 | 23.5 |  |  | 
O=C(N[C@H]1CCC[C@H](CO)C1)C1CCN(c2nc3cc(Cl)c(-c4ccc(Cl)cc4)cc3o2)CC1 | 484 | 20.9 |  |  | 
O=C(/C=C/c1ccc(Cl)cc1)N1CCC2(CC1)CN(Cc1ccc(Cl)c(Cl)c1)C(=O)O2 | 432 | 20.9 |  |  | 
COc1cccc2c1CCCC2CCCN1CCN(C2CCCCC2)CC1 (stereo not drawn) | 501 | 16.6 |  |  | 
Cc1cc(C)c(C/N=C(\O)c2cc(-c3ccc(N4CCN(C)CC4)nc3)cc3c2c(C)cn3C(C)C)c(O)n1 | 490 | 29.5 |  |  | 

SMILES | area under concentration-response curve [1] | AC50 viability [2] [µM] | area under concentration-response curve [3] | area under concentration-response curve [4] | AC50 viability [5] [µM]
CC1=C(OC2=CC3=NC=N[N]3C=C2)C=CC(=C1)NC4=NC=NC5=C4C=C(N\C6=N\C(C)(C)CO6)C=C5 | 402 | 0.00296 |  |  | 
CC1=CC=CC=C1CN2C(=O)C/3=C(/CCN(CC4=CC=CC=C4)C3)N\5CC\N=C25 | 313 | 6.61 |  |  | 
CN(C)CCCOc1ccc(-c2ccc3ncc4c(c3c2)n(C2CCOCC2)c(=O)n4C)cn1 | 487 | 11.5 |  |  | 
Cc1c(NC(=O)OCC2COCCN2)cn2ncnc(Nc3ccc4c(cnn4Cc4cccc(F)c4)c3)c12 (stereo not drawn) | 433 | 23.5 |  |  | 
COc1ccc2c(c1OC)C(=O)O[C@H]2[C@H]1c2c(cc3c(c2OC)OCO3)CCN1C | 493 |  | 519 | 608 | 20.9
COc1ccc(N(C)c2nc(C)nc3ccccc23)cc1 | 491 |  | 401 | 410 | 0.00934
COC(=O)Nc1ccc(-c2nc(N3CCOCC3)c3cnn(C4CCN(Cc5cccnc5)CC4)c3n2)cc1 | 499 |  | 444 | 546 | 16.6
COc1ccc(/C=C\c2cc(OC)c(OC)c(OC)c2)cc1O | 505 |  | 333 | 474 | 0.00934
C=CCn1c(=O)c2cnc(Nc3ccc(N4CCN(C)CC4)cc3)nc2n1-c1cccc(C(C)(C)O)n1 | 452 |  | 393 | 531 | 1.86
COC(=O)[C@@H]1[C@H]2C[C@H]3c4[nH]c5ccccc5c4CCN3C[C@@H]2CC[C@@H]1O | 443 |  | 442 | 458 | 18.6
COc1cc(OC)c(/C=C/[S+](=O)([O-])Cc2ccc(OC)c(OP(=O)(O)O)c2)c(OC)c1 | 503 |  | 407 | 484 | 0.0295
Oc1ccc([C@@H]2Oc3ccc(O)cc3[C@@H]3CCC[C@@H]32)cc1 | 485 |  | 500 | 535 | 13.2
CC(C)(O)[C@H]1CC[C@H](Nc2ccc3ncc(-c4cccc(C(F)(F)F)c4)n3n2)CC1 | 434 |  | 460 | 490 | 11.8
O=C(NC1CC1)c1cccc(-c2ccc3c(NC(=O)C4CC4)n[nH]c3c2)c1 | 495 |  | 496 | 542 | 20.9
O=C(O)c1ccc2c(c1)nc(Nc1cccc(Cl)c1)c1ccncc12 | 517 |  | 509 | 570 | 2.63
COc1cc(NCc2ccc3nc(N)nc(N)c3c2C)cc(OC)c1OC | 447 |  | 446 | 476 | 20.9
CCC1=C[C@@H]2CN(C1)Cc1c([nH]c3ccccc13)[C@@](C(=O)OC)(c1cc3c(cc1OC)N(C)[C@H]1[C@@](O)(C(=O)OC)[C@H](OC(C)=O)[C@]4(CC)C=CCN5CC[C@]31[C@@H]54)C2 | 507 |  | 473 | 573 | 4.56
CC(=O)c1cnc2ccc(-c3cc(Cl)c(O)c(Cl)c3)nc2c1N[C@H]1CC[C@H](CN(C)C)CC1 | 491 |  | 373 | 433 | 0.959
CC(C)NC[C@@H](C(=O)N1CCN(c2ncnc3c2[C@H](C)C[C@H]3O)CC1)c1ccc(Cl)cc1 | 487 |  | 417 | 555 | 3.72
Cc1cc(-c2nc3cc(F)ccc3s2)ccc1NC(=O)[C@@H](N)CCCCN | 555 |  | 538 | 599 | 23.5

SMILES | area under concentration-response curve [1] | AC50 viability [2] [µM] | area under concentration-response curve [3] | area under concentration-response curve [4] | AC50 viability [5] [µM]
C/C(=C\c1csc(C)n1)[C@@H]1C[C@@H]2O[C@]2(C)CCC[C@H](C)[C@H](O)[C@@H](C)C(=O)C(C)(C)[C@@H](O)CC(=O)N1 | 478 |  | 460 | 485 | 2.09
C[N]1N=CC2=C1C=C(C(=C2)OC3=CC=C(NC(=O)\C4=C\C=C(\C)N(C4=O)C5=CC=C(F)C=C5)C=C3F)C6=C[NH]N=C6 | 508 |  | 539 | 626 | 7.42
O=C(Nc1cccc(C(F)(F)F)c1)Nc1cc([S+](=O)([O-])NC2CC2)ccc1-c1ccsc1 | 525 |  | 514 | 568 | 23.5
CN(C)C/C=C/C(=O)Nc1cccc(C(=O)Nc2cccc(Nc3ncc(Cl)c(-c4c[nH]c5ccccc45)n3)c2)c1 | 434 |  | 444 | 437 | 1.66
Cc1ccc([S+](=O)([O-])Nc2cc(-c3ccc(C#N)s3)ccc2C)cc1 | 506 |  | 373 | 507 | 0.0417
Cc1cc(Nc2nc(N[C@@H](C)c3ncc(F)cn3)ncc2Cl)n[nH]1 | 472 |  | 488 | 544 | 14.8
Cc1ncc(NC(=O)c2cccc(C(F)(F)F)c2)cc1-c1cnc(OC2CCOCC2)c(N2CCOCC2)c1 | 541 |  | 560 | 535 | 20.9
CC(/C=C/[C@@H]1C[C@]1(C)c1ccc2c(c1)C(C)(C)CCC2(C)C)=C\C(=O)O | 525 |  | 538 | 650 | 18.6
C[C@@]1(C(=O)Nc2ccc(F)nc2)CCCN1c1nc(Nc2cc(C3CC3)[nH]n2)c2cccn2n1 | 505 |  | 375 | 480 | 0.148
C[C@]12CC[C@@H]3c4ccc(O)cc4CC[C@H]3[C@@H]1CC[C@@H]2O | 437 |  | 471 | 478 | 11.8
C/C(=C\c1csc(C)n1)[C@@H]1C[C@@H]2O[C@@H]2CCC[C@H](C)[C@H](O)[C@@H](C)C(=O)C(C)(C)[C@@H](O)CC(=O)O1 | 462 |  | 347 | 569 | 0.0132
CC[C@]1(O)C[C@H]2CN(CCC3=C([NH]C4=C3C=CC=C4)[C@@](C2)(C(=O)OC)C5=CC6=C(C=C5OC)N(C=O)[C@H]7[C@](O)([C@H](OC(C)=O)[C@]8(CC)\C=C/CN9CC[C@]67[C@H]89)C(=O)OC)C1 | 504 |  | 471 | 590 | 3.32
C[C@@H]1C[C@H]2[C@@H]3\C=C(C)/C4=C/C5=C(C[C@]4(C)[C@H]3[C@@H](O)C[C@]2(C)[C@@]1(O)C(=O)COC(C)=O)C=N[N]5C6=CC=CC=C6 | 513 |  | 529 | 608 | 20.9
COc1c(C)c2c(c(O)c1C/C=C(\C)CCC(=O)O)C(=O)OC2 | 467 |  | 482 | 561 | 0.59
CCn1c(-c2nonc2N)nc2c(C#CC(C)(C)O)ncc(OC[C@H]3CCCNC3)c21 | 369 |  | 442 | 524 | 4.17
CN1CCN([C@H]2CC[C@H](n3cc(-c4ccc(Oc5ccccc5)cc4)c4c(N)ncnc43)CC2)CC1 | 488 |  | 481 | 517 | 9.34
COc1cc(OC)c(/C=C/[S+](=O)([O-])Cc2ccc(OC)c(NCC(=O)[O-])c2)c(OC)c1 | 464 |  | 386 | 479 | 0.059
COC(=O)Nc1nc2cc(C(=O)c3ccccc3)ccc2[nH]1 | 440 |  | 412 | 475 | 0.417
CCOc1ccc(Nc2nc(-c3c(C)nc4ccccn34)cs2)cc1 | 493 |  | 487 | 497 | 2.95
